Measurements from patent US8959984B2, “Proteome-wide quantification of small molecule binding to cellular target proteins” (priority 2007, dated 2015).
Read-outs that look alike come from different tables or passages of the source.

Experiments:
[1] = target: p38a (MAPK14, IPI00002857) (Homo sapiens, UniProt Q16539); experiment: gefitinib competition against AX14596 beads (HeLa lysate, SILAC MS); format: binding
[2] = target: SPR (Homo sapiens, UniProt P35270)
[3] = target: RPL7 (Homo sapiens, UniProt P18124)
[4] = target: T1, DYRK1A (IPI00219250) (Homo sapiens, UniProt Q13627); experiment: binding to VI16742 beads (HeLa lysate, SILAC MS)
T1 construct: endogenous in cells; host or cells: HeLa S3 cell lysate

[5] = target: T2, Isoform 1 of Nicotinamide phosphoribosyltransferase (Homo sapiens, UniProt P43490); experiment: binding to immobilized V16742 (IVA1/IVA2, HeLa lysate, MS)
T2 construct: endogenous in cells; host or cells: HeLa S3

[6] = target: T3, TLK1 (Homo sapiens, UniProt Q9UKI8); experiment: as above
T3 construct: endogenous in cells; host or cells: HeLa S3
T3 sequence (Q9UKI8 1-766): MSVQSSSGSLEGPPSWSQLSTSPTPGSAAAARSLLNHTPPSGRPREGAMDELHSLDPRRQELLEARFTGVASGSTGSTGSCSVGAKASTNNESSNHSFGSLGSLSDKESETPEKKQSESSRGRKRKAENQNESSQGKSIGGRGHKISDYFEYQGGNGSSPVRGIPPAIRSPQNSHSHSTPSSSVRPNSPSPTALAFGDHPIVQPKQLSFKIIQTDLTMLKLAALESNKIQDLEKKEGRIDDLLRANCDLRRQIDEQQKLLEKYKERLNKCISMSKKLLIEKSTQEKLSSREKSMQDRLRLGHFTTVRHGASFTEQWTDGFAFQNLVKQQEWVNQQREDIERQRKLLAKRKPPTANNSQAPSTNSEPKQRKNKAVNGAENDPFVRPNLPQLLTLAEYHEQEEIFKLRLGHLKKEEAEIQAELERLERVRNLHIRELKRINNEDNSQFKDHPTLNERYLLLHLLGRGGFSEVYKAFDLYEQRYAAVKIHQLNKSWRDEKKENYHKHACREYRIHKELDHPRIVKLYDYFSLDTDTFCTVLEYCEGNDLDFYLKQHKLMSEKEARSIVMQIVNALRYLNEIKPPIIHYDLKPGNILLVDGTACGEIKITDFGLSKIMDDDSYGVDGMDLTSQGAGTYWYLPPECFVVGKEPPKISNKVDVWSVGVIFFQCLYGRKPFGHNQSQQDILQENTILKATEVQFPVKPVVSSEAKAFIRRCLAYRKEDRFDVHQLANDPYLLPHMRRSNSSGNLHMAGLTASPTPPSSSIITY

[7] = target: T4, DYRK1A (Homo sapiens, UniProt Q13627); experiment: as above
T4 construct: endogenous in cells; host or cells: HeLa S3

[8] = target: Erk1 (Homo sapiens, UniProt P27361); experiment: as above
Description: Using the three populations of SILAC-labelled cells and the three different inhibitor resins, two parallel experiments termed as IVA1 (In Vitro Association, Setting 1) and IVA2 (In Vitro Association, Setting 2) were performed. […] In IVA2, SILAC encoded HeLa cells lysates were subjected to two parallel rounds of consecutive affinity purification at the highest ligand density where the supernatant left behind after the first IVA was used for the second round of IVA. An additional incubation of Hela cell lysate with control beads devoid of immobilized inhibitor was also performed to distinguish background binders.
A common IPI identifier template was assigned to peptides based on the MASCOT html-output file for the IVA2 setting in first experiment. The proteins hits identified based on unique peptides were filtered for mass error and MASCOT score. Eventually, the hits identified in both first and second IVA2 experiments were quantified for IVA2 setting of first experiment by MSQuant. […] A next round of sorting was done to filter out protein hits that are less than 50% enriched in the IVA second round compared to IVA first round. This is because at enrichment below 50%, there could be significant errors in deducing kd values for the corresponding targets. […] The same set of targets was also quantified in IVA2 and IVA1 settings of an independent second experiment.

[9] = tested on: WDR68 (IPI00006754); experiment: binding to VI16742 beads (HeLa lysate, SILAC MS); parameters: species or system human
Description: (§1) In an alternative implementation of the chemical proteomic approach according to the invention, the broadly-selective pyrido[2,3-d]pyrimidine-based kinase inhibitor VI16742 has been used for affinity capture (FIG. 10a). […] As shown by gene ontology analysis, the corresponding molecular functions were highly over-represented in proteins specifically retained by the inhibitor resin (FIG. 10b).

[10] = tested on: CCNH (IPI00021305); experiment: binding to VI16742 beads (HeLa lysate, SILAC MS); parameters: species or system human
Description: as §1

[11] = tested on: PARVA (IPI00018963); experiment: binding to VI16742 beads (HeLa lysate, SILAC MS); parameters: species or system human
Description: as §1

[12] = tested on: RSU1 (IPI00847168); experiment: binding to VI16742 beads (HeLa lysate, SILAC MS); parameters: species or system human
Description: as §1

[13] = tested on: ERCC2 (IPI00029728); experiment: binding to VI16742 beads (HeLa lysate, SILAC MS); parameters: species or system human
Description: as §1

[14] = tested on: LIMS1 (IPI00788612); experiment: binding to VI16742 beads (HeLa lysate, SILAC MS); parameters: species or system human
Description: as §1

[15] = control beads vs first incubation
[16] = average of two experiments, read-out: Kd Avg

T2 sequence (P43490 whole entry, canonical isoform): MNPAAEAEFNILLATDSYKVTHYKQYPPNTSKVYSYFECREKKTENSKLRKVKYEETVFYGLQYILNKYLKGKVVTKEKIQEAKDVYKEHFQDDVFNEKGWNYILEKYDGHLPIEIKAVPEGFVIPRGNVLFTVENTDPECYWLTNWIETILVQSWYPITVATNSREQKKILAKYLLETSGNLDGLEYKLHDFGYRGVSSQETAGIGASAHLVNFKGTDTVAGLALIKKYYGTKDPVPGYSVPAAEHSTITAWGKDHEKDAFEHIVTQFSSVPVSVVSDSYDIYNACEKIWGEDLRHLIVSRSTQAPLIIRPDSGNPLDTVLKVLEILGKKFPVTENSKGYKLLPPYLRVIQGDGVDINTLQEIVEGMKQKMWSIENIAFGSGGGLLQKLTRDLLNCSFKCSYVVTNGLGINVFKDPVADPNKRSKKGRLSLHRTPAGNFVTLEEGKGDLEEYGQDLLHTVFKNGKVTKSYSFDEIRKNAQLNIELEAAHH
Chain of SPR (P35270 whole entry): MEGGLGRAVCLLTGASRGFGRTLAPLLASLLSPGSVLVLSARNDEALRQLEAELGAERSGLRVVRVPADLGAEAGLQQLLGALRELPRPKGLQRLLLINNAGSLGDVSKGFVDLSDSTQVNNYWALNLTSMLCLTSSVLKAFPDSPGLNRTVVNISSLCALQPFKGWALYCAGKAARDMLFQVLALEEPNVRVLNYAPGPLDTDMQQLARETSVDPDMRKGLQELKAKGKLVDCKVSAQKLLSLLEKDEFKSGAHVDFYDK
Chain of Erk1 (P27361 whole entry): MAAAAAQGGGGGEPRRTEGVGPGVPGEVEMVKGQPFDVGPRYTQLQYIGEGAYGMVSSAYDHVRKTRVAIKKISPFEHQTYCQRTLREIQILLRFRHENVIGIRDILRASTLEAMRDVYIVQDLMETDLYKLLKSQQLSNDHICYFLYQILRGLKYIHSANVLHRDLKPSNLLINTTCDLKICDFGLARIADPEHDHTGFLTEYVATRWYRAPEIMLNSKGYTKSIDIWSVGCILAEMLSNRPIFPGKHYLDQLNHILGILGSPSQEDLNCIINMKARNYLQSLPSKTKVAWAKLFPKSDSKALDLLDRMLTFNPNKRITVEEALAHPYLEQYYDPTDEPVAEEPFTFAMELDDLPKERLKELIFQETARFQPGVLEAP
Chain of p38a (MAPK14, IPI00002857) (Q16539 whole entry): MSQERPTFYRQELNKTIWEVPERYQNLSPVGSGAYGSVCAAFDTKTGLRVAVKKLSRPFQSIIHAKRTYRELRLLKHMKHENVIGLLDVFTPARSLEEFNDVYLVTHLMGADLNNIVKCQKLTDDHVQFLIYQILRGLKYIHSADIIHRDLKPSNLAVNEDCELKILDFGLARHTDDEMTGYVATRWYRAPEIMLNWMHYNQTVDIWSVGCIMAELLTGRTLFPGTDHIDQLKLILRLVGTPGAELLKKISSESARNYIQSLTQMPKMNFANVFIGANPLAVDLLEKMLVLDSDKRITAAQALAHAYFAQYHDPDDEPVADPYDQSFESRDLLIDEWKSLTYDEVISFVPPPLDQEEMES

## COc1cc2ncnc(Nc3ccc(F)c(Cl)c3)c2cc1OCCCN1CCOCC1 [gefitinib]
[1]
  rAVERAGE (10 nM/0 nM Gef.): 0.88
  rAVERAGE (100 nM/0 nM Gef.): 1.04
  rAVERAGE (1000 nM/0 nM Gef.): 0.92
  rAVERAGE (10000 nM/0 nM Gef.): 0.64
[2]
  rAVERAGE (10 nM/0 nM Gef.): 1.04
  rAVERAGE (100 nM/0 nM Gef.): 1.10
  rAVERAGE (1000 nM/0 nM Gef.): 1.01
  rAVERAGE (10000 nM/0 nM Gef.): 0.77
[3]
  rAVERAGE (10 nM/0 nM Gef.): 0.84
  rAVERAGE (100 nM/0 nM Gef.): 1.08
  rAVERAGE (1000 nM/0 nM Gef.): 0.86
  rAVERAGE (10000 nM/0 nM Gef.): 0.98

## CC(C)n1c(=O)ccc2cnc(Nc3ccc(OCCN)cc3)nc21 [V16742]
[4]; [15]
  rAVERAGE (CTRL/1 INC): 0.08
[4]; immobilized VI16742
  Ki: 83.8 µM
[4]; second vs first incubation
  rAVERAGE (2 INC/1 INC): 0.62
[5]; Experiment 1, 1.87 μM 16742
  Percent bound at various 16742 conc: 2.80%
[5]; Experiment 1, 8.74 μM 16742
  Percent bound at various 16742 conc: 2.70%
[5]; Experiment 1, 52 μM 16742
  Percent bound at various 16742 conc: 54.03%
[5]; Experiment 1, read-out: Kd
  Kd: 54.8 µM
[5]; Experiment 2, 1.87 μM 16742
  Percent bound at various 16742 conc: 2.28%
[5]; Experiment 2, 8.74 μM 16742
  Percent bound at various 16742 conc: 3.40%
[5]; Experiment 2, 52 μM 16742
  Percent bound at various 16742 conc: 41.68%
[5]; Experiment 2, read-out: Kd
  Kd: 80.3 µM
[5]; [16]
  Kd: 67.5 µM
[6]; Experiment 1, 1.87 μM 16742
  Percent bound at various 16742 conc: 1.34%
[6]; Experiment 1, 8.74 μM 16742
  Percent bound at various 16742 conc: 2.39%
[6]; Experiment 1, 52 μM 16742
  Percent bound at various 16742 conc: 49.12%
[6]; Experiment 1, read-out: Kd
  Kd: 64 µM
[6]; Experiment 2, 1.87 μM 16742
  Percent bound at various 16742 conc: 0.76%
[6]; Experiment 2, 8.74 μM 16742
  Percent bound at various 16742 conc: 1.97%
[6]; Experiment 2, 52 μM 16742
  Percent bound at various 16742 conc: 31.56%
[6]; Experiment 2, read-out: Kd
  Kd: 121 µM
[6]; [16]
  Kd: 92.4 µM
[7]; Experiment 1, 1.87 μM 16742
  Percent bound at various 16742 conc: 5.75%
[7]; Experiment 1, 8.74 μM 16742
  Percent bound at various 16742 conc: 14.82%
[7]; Experiment 1, 52 μM 16742
  Percent bound at various 16742 conc: 52.16%
[7]; Experiment 1, read-out: Kd
  Kd: 47.8 µM
[7]; Experiment 2, 1.87 μM 16742
  Percent bound at various 16742 conc: 1.08%
[7]; Experiment 2, 8.74 μM 16742
  Percent bound at various 16742 conc: 3.76%
[7]; Experiment 2, 52 μM 16742
  Percent bound at various 16742 conc: 28.11%
[7]; Experiment 2, read-out: Kd
  Kd: 137 µM
[7]; [16]
  Kd: 92.5 µM
[8]
  Kd: 57.8 µM
[8]; Erk1, Experiment 1, 1.87 μM 16742
  Percent bound at various 16742 conc: 1.06%
[8]; Erk1, Experiment 1, 8.74 μM 16742
  Percent bound at various 16742 conc: 2.41%
[8]; Erk1, Experiment 1, 52 μM 16742
  Percent bound at various 16742 conc: 52.52%
[8]; Erk1, Experiment 2, 1.87 μM 16742
  Percent bound at various 16742 conc: 0.91%
[8]; Erk1, Experiment 2, 8.74 μM 16742
  Percent bound at various 16742 conc: 2.38%
[8]; Erk1, Experiment 2, 52 μM 16742
  Percent bound at various 16742 conc: 45.83%
[8]; Kd Avg, Erk1, average of two experiments
  Kd: 64.4 µM
[8]; Kd, Erk1, Experiment 2
  Kd: 71.1 µM
[8]; Kd, Erk1, immobilized V16742
  Kd: 64.4 µM
[9]; 3 mg vs 1 mg lysate
  r (3 MG/1 MG LYSATE): 2.58
[9]; 5 h vs 2.5 h incubation time
  r (5 h/2.5 h INC. TIME): 1.31
[9]; [15]
  rAVERAGE (CTRL/1 INC): 0.17
[9]; immobilized VI16742
  Ki: 249 µM
[9]; second vs first incubation
  rAVERAGE (2 INC/1 INC): 0.83
[10]; [15]
  rAVERAGE (CTRL/1 INC): 0.05
[10]; immobilized VI16742
  Ki: 96.9 µM
[10]; second vs first incubation
  rAVERAGE (2 INC/1 INC): 0.65
[11]; [15]
  rAVERAGE (CTRL/1 INC): 0.06
[11]; immobilized VI16742
  Ki: 155 µM
[11]; second vs first incubation
  rAVERAGE (2 INC/1 INC): 0.75
[12]; 5 h vs 2.5 h incubation time
  r (5 h/2.5 h INC. TIME): 1.34
[12]; [15]
  rAVERAGE (CTRL/1 INC): 0.07
[12]; immobilized VI16742
  Ki: 216 µM
[12]; second vs first incubation
  rAVERAGE (2 INC/1 INC): 0.81
[13]; [15]
  rAVERAGE (CTRL/1 INC): 0.17
[13]; immobilized VI16742
  Ki: 118 µM
[13]; second vs first incubation
  rAVERAGE (2 INC/1 INC): 0.69
[14]; [15]
  rAVERAGE (CTRL/1 INC): 0.04
[14]; immobilized VI16742
  Ki: 143 µM
[14]; second vs first incubation
  rAVERAGE (2 INC/1 INC): 0.73
